Where a name gives a salt, the structure may show the parent alone.
Experiments:
[1] = Multicenter placebo-controlled dose response study of intramuscular PBZ: safety and tolerance (Example II); type: in vivo, human; conditions: most frequent adverse event
[2] = cited from earlier work
[3] = test system: active trigger points; assay: Multicenter, randomized, placebo-controlled, double-blind dose response study of intramuscular PBZ: efficacy (Example II); type: in vivo, human
Method: (§1) This was a multicenter, randomized, placebo-controlled, double-blind, dose response study of intramuscular phenoxybenzamine hydrochloride (PBZ) versus vehicle and saline placebos. Phenoxybenzamine formulation known in the art (propylene glycol and alcohol) and diluted in saline at the time of injection were evaluated. […] Patients with pain in the most commonly affected regions, the upper and lower back, were studied. Patients enrolled in this study were male or female with 4 months to 8 years of myofascial pain syndrome with identifiable active trigger points. Patients were required to have had EMG documented triggers points and meet the criteria of <10 uV in the adjacent muscle site and have a minimum of a 2:1 ratio of trigger point amplitude: adjacent amplitude. Attempts were made to obtain maximum amplitude in the trigger point.
(§2) The primary objectives of this study were to evaluate the safety, tolerance, and efficacy of 4 doses (0.1, 0.3, 1.0, or 2.4 mg) of phenoxybenzamine per intramuscular injection site. The vehicle placebo group received vehicle in a concentration equivalent to the active doses. A second placebo was saline. All injections were of 0.3 ml in volume. Up to 10 trigger points were injected at each treatment session. There were up to 2 treatment sessions up to 10 days apart. The primary efficacy evaluation was made at week 12 of treatment. The Visual Analogue Pain Scale (VAS) was used to assess pain in the affected region before and after treatment. Secondary efficacy assessments included the McGill Pain Questionnaire (MPQ), the Spinal Function Sort (SFS) and the SF-36 Quality of Life questionnaire.

[4] = Multicenter placebo-controlled dose response study of intramuscular PBZ: safety and tolerance (Example II); type: in vivo, human
Method: as §1, §2
Thirty-two of the 79 patients (41%) in the saline placebo group, 33 of 83 patients (40%) in the vehicle placebo group, 35 of the 86 patients (41%) in the 1 mg group, and 37 of the 81 patients (46%) in the 2.4 mg group experienced 1 or more treatment-emergent adverse experiences. For all treatment groups combined, the most common adverse experiences observed were dizziness: 8%; pain 5%; nausea: 3%, and sweating: 3%. […] The most frequent adverse experiences were dizziness (8%) and pain (5%), followed by headache, sweating, and nausea (3% each).

[5] = 1 mg PBZ per injection site, 86 patients

CC(COc1ccccc1)N(CCCl)Cc1ccccc1 (centres unmarked) [Phenoxybenzamine Hydrochloride, phenoxybenzamine hydrochloride]
injection site pain, share of all adverse events [1]: 77%
irritation at the site of the injection [2]: irritation of the muscle at the site of the injection can occur
efficacy of formulations in this study ([3]; 1.0 mg and 2.4 mg in propylene glycol and alcohol composition): ineffective
difference in percent change from baseline between placebo and active drug ([3]; 1.0 mg group, not statistically significant): 9.9%
efficacy compared with placebo ([3]; 2.4 mg group): equivalent to placebo
Dizziness, % of patients ([4]; 0.1 mg PBZ per injection site): 5%
Dizziness, number of patients ([4]; 0.1 mg PBZ per injection site): 1
Ecchymosis, % of patients ([4]; 0.1 mg PBZ per injection site): 0 (0%)
Ecchymosis, number of patients ([4]; 0.1 mg PBZ per injection site): 0 (0%)
Flu syndrome, % of patients ([4]; 0.1 mg PBZ per injection site): 0 (0%)
Flu syndrome, number of patients ([4]; 0.1 mg PBZ per injection site): 0 (0%)
Headache, % of patients ([4]; 0.1 mg PBZ per injection site): 0 (0%)
Headache, number of patients ([4]; 0.1 mg PBZ per injection site): 0 (0%)
Hypotension, % of patients ([4]; 0.1 mg PBZ per injection site): 0 (0%)
Hypotension, number of patients ([4]; 0.1 mg PBZ per injection site): 0 (0%)
Infection, % of patients ([4]; 0.1 mg PBZ per injection site): 0 (0%)
Infection, number of patients ([4]; 0.1 mg PBZ per injection site): 0 (0%)
Injection site edema, % of patients ([4]; 0.1 mg PBZ per injection site): 0 (0%)
Injection site edema, number of patients ([4]; 0.1 mg PBZ per injection site): 0 (0%)
Nausea, % of patients ([4]; 0.1 mg PBZ per injection site): 0 (0%)
Nausea, number of patients ([4]; 0.1 mg PBZ per injection site): 0 (0%)
Pain, % of patients ([4]; 0.1 mg PBZ per injection site): 5%
Pain, number of patients ([4]; 0.1 mg PBZ per injection site): 1
Sweating, % of patients ([4]; 0.1 mg PBZ per injection site): 0 (0%)
Sweating, number of patients ([4]; 0.1 mg PBZ per injection site): 0 (0%)
Syncope, % of patients ([4]; 0.1 mg PBZ per injection site): 0 (0%)
Syncope, number of patients ([4]; 0.1 mg PBZ per injection site): 0 (0%)
TOTAL NUMBER OF PATIENTS reporting treatment-emergent adverse experiences, % of patients ([4]; 0.1 mg PBZ per injection site): (33%)
TOTAL NUMBER OF PATIENTS reporting treatment-emergent adverse experiences, number ([4]; 0.1 mg PBZ per injection site): 7
Dizziness, % of patients ([4]; 0.3 mg PBZ per injection site): 0 (0%)
Dizziness, number of patients ([4]; 0.3 mg PBZ per injection site): 0 (0%)
Ecchymosis, % of patients ([4]; 0.3 mg PBZ per injection site): 0 (0%)
Ecchymosis, number of patients ([4]; 0.3 mg PBZ per injection site): 0 (0%)
Flu syndrome, % of patients ([4]; 0.3 mg PBZ per injection site): 5%
Flu syndrome, number of patients ([4]; 0.3 mg PBZ per injection site): 1
Headache, % of patients ([4]; 0.3 mg PBZ per injection site): 5%
Headache, number of patients ([4]; 0.3 mg PBZ per injection site): 1
Hypotension, % of patients ([4]; 0.3 mg PBZ per injection site): 0 (0%)
Hypotension, number of patients ([4]; 0.3 mg PBZ per injection site): 0 (0%)
Infection, % of patients ([4]; 0.3 mg PBZ per injection site): 5%
Infection, number of patients ([4]; 0.3 mg PBZ per injection site): 1
Injection site edema, % of patients ([4]; 0.3 mg PBZ per injection site): 0 (0%)
Injection site edema, number of patients ([4]; 0.3 mg PBZ per injection site): 0 (0%)
Nausea, % of patients ([4]; 0.3 mg PBZ per injection site): 5%
Nausea, number of patients ([4]; 0.3 mg PBZ per injection site): 1
Pain, % of patients ([4]; 0.3 mg PBZ per injection site): 0 (0%)
Pain, number of patients ([4]; 0.3 mg PBZ per injection site): 0 (0%)
Sweating, % of patients ([4]; 0.3 mg PBZ per injection site): 0 (0%)
Sweating, number of patients ([4]; 0.3 mg PBZ per injection site): 0 (0%)
Syncope, % of patients ([4]; 0.3 mg PBZ per injection site): 0 (0%)
Syncope, number of patients ([4]; 0.3 mg PBZ per injection site): 0 (0%)
TOTAL NUMBER OF PATIENTS reporting treatment-emergent adverse experiences, % of patients ([4]; 0.3 mg PBZ per injection site): (23%)
TOTAL NUMBER OF PATIENTS reporting treatment-emergent adverse experiences, number ([4]; 0.3 mg PBZ per injection site): 5
Dizziness, % of patients ([4]; 1 mg PBZ per injection site): 13%
Dizziness, number of patients ([4]; 1 mg PBZ per injection site): 11
Ecchymosis, % of patients ([4]; 1 mg PBZ per injection site): 1 (1%)
Ecchymosis, number of patients ([4]; 1 mg PBZ per injection site): 1 (1%)
Flu syndrome, % of patients ([4]; 1 mg PBZ per injection site): 3 (3%)
Flu syndrome, number of patients ([4]; 1 mg PBZ per injection site): 3 (3%)
Headache, % of patients ([4]; 1 mg PBZ per injection site): 6%
Headache, number of patients ([4]; 1 mg PBZ per injection site): 5
Hypotension, % of patients ([4]; 1 mg PBZ per injection site): 2 (2%)
Hypotension, number of patients ([4]; 1 mg PBZ per injection site): 2 (2%)
Infection, % of patients ([4]; 1 mg PBZ per injection site): 2 (2%)
Infection, number of patients ([4]; 1 mg PBZ per injection site): 2 (2%)
Injection site edema, % of patients ([4]; 1 mg PBZ per injection site): 2 (2%)
Injection site edema, number of patients ([4]; 1 mg PBZ per injection site): 2 (2%)
Nausea, % of patients ([4]; 1 mg PBZ per injection site): 1 (1%)
Nausea, number of patients ([4]; 1 mg PBZ per injection site): 1 (1%)
Pain, % of patients ([4]; 1 mg PBZ per injection site): 8%
Pain, number of patients ([4]; 1 mg PBZ per injection site): 7
Sweating, % of patients ([4]; 1 mg PBZ per injection site): 3 (3%)
Sweating, number of patients ([4]; 1 mg PBZ per injection site): 3 (3%)
Syncope, % of patients ([4]; 1 mg PBZ per injection site): 2 (2%)
Syncope, number of patients ([4]; 1 mg PBZ per injection site): 2 (2%)
TOTAL NUMBER OF PATIENTS reporting treatment-emergent adverse experiences, % of patients [4, 5]: 41%
TOTAL NUMBER OF PATIENTS reporting treatment-emergent adverse experiences, number [4, 5]: 35
Dizziness, % of patients ([4]; 2.4 mg PBZ per injection site): (10%)
Dizziness, number of patients ([4]; 2.4 mg PBZ per injection site): 8
Ecchymosis, % of patients ([4]; 2.4 mg PBZ per injection site): 1 (1%)
Ecchymosis, number of patients ([4]; 2.4 mg PBZ per injection site): 1 (1%)
Flu syndrome, % of patients ([4]; 2.4 mg PBZ per injection site): 1 (1%)
Flu syndrome, number of patients ([4]; 2.4 mg PBZ per injection site): 1 (1%)
Headache, % of patients ([4]; 2.4 mg PBZ per injection site): 0 (0%)
Headache, number of patients ([4]; 2.4 mg PBZ per injection site): 0 (0%)
Hypotension, % of patients ([4]; 2.4 mg PBZ per injection site): 1 (1%)
Hypotension, number of patients ([4]; 2.4 mg PBZ per injection site): 1 (1%)
Infection, % of patients ([4]; 2.4 mg PBZ per injection site): 1 (1%)
Infection, number of patients ([4]; 2.4 mg PBZ per injection site): 1 (1%)
Injection site edema, % of patients ([4]; 2.4 mg PBZ per injection site): 9%
Injection site edema, number of patients ([4]; 2.4 mg PBZ per injection site): 7
Nausea, % of patients ([4]; 2.4 mg PBZ per injection site): 5%
Nausea, number of patients ([4]; 2.4 mg PBZ per injection site): 4
Pain, % of patients ([4]; 2.4 mg PBZ per injection site): 6%
Pain, number of patients ([4]; 2.4 mg PBZ per injection site): 5
Sweating, % of patients ([4]; 2.4 mg PBZ per injection site): 6%
Sweating, number of patients ([4]; 2.4 mg PBZ per injection site): 5
Syncope, % of patients ([4]; 2.4 mg PBZ per injection site): 1 (1%)
Syncope, number of patients ([4]; 2.4 mg PBZ per injection site): 1 (1%)
TOTAL NUMBER OF PATIENTS reporting treatment-emergent adverse experiences, number ([4]; 2.4 mg PBZ per injection site, 81 patients): 37
injection site soreness compared with placebo groups ([4]; high dose groups, first and second treatments): Significantly more patients
injection site pain, mean duration ([4]; in vivo): less than 10 days
injection site pain, severity ([4]; in vivo): mild to moderate
side effects at the injection site ([4]; low dosages): caused some adverse side effected at the injection site
